Laboratory results: patent US20250136652A1, “FUSION PROTEIN FOR TARGETING RECOMBINANT PROTEINS FOR DEGRADATION” (The Regents of the University of California, priority 2022, published 2025)
Values belong to the molecule of their own block, whether it stands above or below them. Residues, ends and D or L forms follow the SMILES beside them. *: point of attachment. Cbz = O=C(OCc1ccccc1)*

Tests used:
[1] = tested on: STUD degradation of GFP (ubiquitin proteasome pathway); experiment: Inhibitor assay: rescue of GFP fluorescence in Jurkat T cells expressing SynZip STUD and GFP target; format: cell-based; settings: 5 hours; for GFP fluorescence rescue relative to DMSO vehicle control: cells express functional STUD and GFP target
Description: FIG. 3: STUD degradation of GFP is mediated by the cullins in UPP. Representative flow cytometry distributions of GFP fluorescence of Jurkat T cells expressing the SynZip STUD described in FIG. 2B treated with one of three drugs or a DMSO vehicle control. Distributions are representative of three independent experiments.
Using the 2 plasmid system as described above, we lentivirally transduce Jurkat T cells. 72 hours after removal of lentivirus, we treat these Jurkat T cells and an untransduced control cell line with either 5 μM of the proteasomal inhibitor MG-132, 1 μM of the cullin ring ligase inhibitor MLN4924, 100 nM of the lysosomal inhibitor Bafilomycin A1, or DMSO vehicle control and incubate at 37 C for 5 hours. […] FIG. 3.
Flow cytometry: All flow cytometry data was obtained using a LSR Fortessa (BD Biosciences). All assays were run in a 96-well round bottom plate (Fisher Scientific #08-772-2C). Samples were prepared by pelleting cells in the plate using centrifugation at 400×g for 4 minutes. Supernatant was then removed and 200 μL of PBS (UCSF Cell Culture facility) was used to wash cells. The cells were again pelleted as described above and supernatant was removed. Cells were resuspended in 120 μL of Flow buffer (PBS+2% FBS) and mixed by pipetting prior to flow cytometry assay.
(§1) Inhibitor Assays: 100,000 cells were plated in a 96 well round bottom plate with either 5 μM MG-132 (Sigma-Aldrich #M7449-200UL), 1 μM MLN4924 (Active Biochem #A-1139), 100 nM Bafilomycin A1 (Enzo Life Sciences #BML-CM110-0100), or DMSO vehicle control and incubated at 37 C for 5 hours. After incubation, cells were pelleted by centrifugation at 400×g for 4 minutes. Supernatant was then removed and cells were washed once with 200 μL PBS. Cells were pelleted again (400×g for 4 minutes) and resuspended in flow buffer (PBS+2% FBS) for assay by flow cytometry.

[2] = tested on: STUD knockdown of anti-CD19 4-1BB CD3zeta CAR; experiment: MLN4924 rescue of STUD knockdown of CD19BBz CAR expression in CD8+ primary T cells; format: cell-based, human; settings: 1 μM MLN4924, 5 hours, 37 C
Description: FIG. 4D. Plasmid in FIG. 4A is transduced into CD8+ primary T cells and anti-CD19 4-1BB CD3zeta CAR expression and activation is assayed. Left: Cullin inhibitor MLN4924 is added to engineered T cells to rescue degradation of CAR by STUD. […] Black bars represent each condition with DMSO vehicle control. Middle: Engineered T cells are cocultured with NALM6 target cells for 72 hours and lysis is measured by flow cytometry. Lysis is calculated relative to lysis of NALM6 cells cultured with UnT T cells. Right: Median fluorescence of T cell activation marker CD25 after coculture is measured by antibody stain for CD25 and flow cytometry.
Engineered CD8+ T cells expressing were cocultured with NALM6 target cells and measured activation of the CAR by quantifying target cell lysis and expression of the T cell activation marker CD25.
as §1, with “cytometry. […]” for “cytometry.”

NALM6 target cells = experiment: MLN4924 dose response: ON switch CAR lysis of NALM6 target cells; format: cell-based, human; settings: MLN4924 1 μM to 0.015625 μM; 72 hours at 37 C; CD8+ T cells with antiCD19BBz CAR-SynZip and memSTUD
Description: We engineer CD8+ primary human T cells that express an antiCD19BBz CAR fused to a SynZip and a STUD to recognizes the SynZip. As a control, the CD8+ primary human T cells that express the same CAR without the SynZip and the SynZip STUD were also engineered. Both these cell lines were cocultured and an untransduced (UnT) control with NALM6 target cells for 72 hours at 37 C in the presence of various concentrations of MLN4924. Lysis of target cells was calculated by each line relative to NALM6 cells cultured alone by flow cytometry.
CD8+ primary human T cells were engineered with an antiCD19BBz CAR fused to a SynZip and a memSTUD that binds the SynZip using the same plasmids outlined in FIG. 14A by lentiviral transduction. As a control, we also lentivirally transduce CD8+ primary human T cells with an antiCD19BBz and a SynZip memSTUD which cannot bind the CAR. These engineered cells and an untransduced control were cocultured with NALM6 target cells for 72 hours at 37 C in the presence of MLN4924 ranging from 1 μM to 0.015625 μM and a DMSO vehicle control. After coculture, target cell lysis was assayed by flow cytometry. Specific target cell lysis of each cell line relative to NALM6 cells cultured alone in the same conditions was then calculated.
Co-culture assays: For all assays, T cells and target cells were co-cultured at a 1:1 ratio with cell numbers varying per assay. […]

[3] = target: GFP fused to a heterodimeric SynZip protein complementary to the binding domain on the STUD; experiment: cell-based or functional assay
Sequence of GFP fused to a heterodimeric SynZip protein complementary to the binding domain on the STUD (chain, as listed by the source): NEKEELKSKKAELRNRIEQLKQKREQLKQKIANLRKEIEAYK

Molecule: NS(=O)(=O)OC[C@@H]1C[C@@H](n2ccc3c(N[C@H]4CCc5ccccc54)ncnc32)C[C@@H]1O [MLN4924]
- GFP fluorescence rescue relative to DMSO vehicle control ([1]; 1 μM MLN4924, 37 C): can indeed be rescued
- rescue of STUD knockdown of CAR expression [2]: can rescue STUD knockdown of CAR expression
- specific target cell lysis by CAR (NALM6 target cells): dose dependent

Molecule: CO/C1=C\C(C)=C\[C@@H](C)[C@@H](O)[C@@H](C)C/C(C)=C/C=C/[C@H](OC)[C@@H]([C@@H](C)[C@@H](O)[C@H](C)[C@@]2(O)C[C@@H](O)[C@H](C)[C@@H](C(C)C)O2)OC1=O [Bafilomycin A1]
- GFP fluorescence change relative to DMSO vehicle control ([1]; 100 nM Bafilomycin A1, 37 C): No changes to GFP fluorescence

Molecule: CC(C)C[C@@H](C=O)NC(=O)[C@H](CC(C)C)NC(=O)[C@H](CC(C)C)NC(=O)OCc1ccccc1 [MG-132] (Cbz-Leu-Leu-Leu-aldehyde)
- GFP fluorescence rescue relative to DMSO vehicle control ([1]; 5 μM MG-132, 37 C): can indeed be rescued

- fold change of median normalized GFP fluorescence (GFP/tagBFP), flow cytometry, Jurkat T cells [3]: 42 fold
B1: synZIP STUD (Synthetic Targeter of Ubiquitination and Degradation) (designed binder)
chain: SIAATLENDLARLENENARLERDIANLERDLARLEREEAYFGSGSGSGSGSRRRG
